Key:
[1] = test system: H-bc-derived tumor xenografts; experiment: H-bc-derived tumor xenografts in nude mice, tumor weight day 25; type: in vivo, BALB/c male nude mice; settings: H-bc tumors, Pa 45 ug/mouse intraperitoneal once in 2 days
Excerpt: (§1) Animal experiments were undertaken in accordance with the National Institutes of Health Guide for the Care and Use of Laboratory Animals. BALB/c male nude mice aged of 8-12 weeks were used for this study. 5637 or H-bc cells were embedded in BD Matrigel Matrix (Becton, Dickinson, Franklin Lakes, N.J., USA) and subcutaneously injected into the four sites at the back of mice as following: 1.7×10^7 cells/site for 5637, 0.7×10^7 cells/site for H-bc, 4 sites/mouse, 6 mice for 5637, 6 mice for H-bc, respectively. From the fourth day after cell injection, all 5637-generated tumors were intratumorally injected with 2 nM miR-193a-3p agomiR or miR-193a-5p agomiR, while H-bc-generated tumors were injected with 4 nM miR-193a-3p/-5p/Mock antagomiR/PBS in a similar manner. From the sixth day after cell injection, three mice from 5637 and three from H-bc intraperitoneally received Pa (45 ug/mouse) once in 2 days. The remaining six mice (three from 5637 and three from H-bc) received PBS as a mock treatment control. Mice were humanely killed on day 25, and the tumors were weighed and photographed. The tumor weight was described as the mean±S.D.
(§2) Animal experiments were undertaken in accordance with the National Institutes of Health Guide for the Care and Use of Laboratory Animals. BALB/c male nude mice of 8-12 weeks of age were used for this study. […]

[2] = test system: 5637 cell-derived tumor xenograft; experiment: 5637-derived tumor xenografts in nude mice, tumor weight day 25; type: in vivo, BALB/c male nude mice; settings: 5637 tumors, Pa 45 ug/mouse intraperitoneal once in 2 days
Excerpt: as §1, §2

Q: What does the source list for `CC(=O)O[C@H]1C(=O)[C@@]2(C)[C@H]([C@H](OC(=O)c3ccccc3)[C@]3(O)C[C@H](OC(=O)[C@H](O)[C@@H](NC(=O)c4ccccc4)c4ccccc4)C(C)=C1C3(C)C)[C@]1(OC(C)=O)CO[C@@H]1C[C@@H]2O` [Pacilitaxol, Paclitaxel]?
A: tumor weight ratio of the Pa treated over PBS treated [1]: 0.40; tumor weight ratio of the Pa treated over PBS treated [2]: 0.283

From patent publication US10011877B2, “Treatment of bladder cancer to overcome chemoresistance” (Genedia Biotech Co., Ltd., priority 2015, dated 2018)
